One data set has as its target T1, Human SSAO (Homo sapiens, UniProt Q16853).
T1 construct: rat lung or human umbilical cord homogenates were prepared by chopping the freshly removed tissue; from tissue; host or cells: human umbilical cord homogenate (25,000 g supernatant)
T1 sequence (Q16853 1-763): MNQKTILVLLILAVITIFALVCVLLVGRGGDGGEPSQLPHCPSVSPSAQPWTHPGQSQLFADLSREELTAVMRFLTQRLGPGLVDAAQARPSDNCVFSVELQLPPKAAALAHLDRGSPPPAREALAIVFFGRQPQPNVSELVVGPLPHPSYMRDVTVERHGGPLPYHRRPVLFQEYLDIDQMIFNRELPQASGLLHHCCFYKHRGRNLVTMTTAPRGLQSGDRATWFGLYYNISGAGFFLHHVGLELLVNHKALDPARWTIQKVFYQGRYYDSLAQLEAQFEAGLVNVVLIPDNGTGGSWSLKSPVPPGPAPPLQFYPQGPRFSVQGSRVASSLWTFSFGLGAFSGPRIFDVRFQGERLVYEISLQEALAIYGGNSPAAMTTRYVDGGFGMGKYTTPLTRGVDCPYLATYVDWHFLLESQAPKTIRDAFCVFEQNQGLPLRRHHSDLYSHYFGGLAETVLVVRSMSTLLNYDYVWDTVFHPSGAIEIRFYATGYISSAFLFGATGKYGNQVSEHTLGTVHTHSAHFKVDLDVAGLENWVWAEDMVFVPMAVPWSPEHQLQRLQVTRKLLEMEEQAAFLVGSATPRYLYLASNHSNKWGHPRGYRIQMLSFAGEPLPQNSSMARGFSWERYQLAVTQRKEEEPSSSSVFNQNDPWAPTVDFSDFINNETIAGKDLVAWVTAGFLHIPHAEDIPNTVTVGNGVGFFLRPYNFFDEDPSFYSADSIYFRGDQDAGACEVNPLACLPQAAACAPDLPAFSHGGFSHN
Nature of the data set: In vitro inhibition of SSAO activity, human umbilical cord homogenate, 14C-benzylamine. Further details: Human SSAO, percent at given concentration: unit of the concentration uncertain. In kind it is biochemical. On the procedure: SSAO activity was measured as described (Lizcano J M. Et al. (1998) Biochem J. 331:69). Briefly, rat lung or human umbilical cord homogenates were prepared by chopping the freshly removed tissue into small pieces and washing them thoroughly in PBS. The tissue was then homogenized 1:10 (w/v) for lung or 1:5 (w/v) for umbilical cord, in 10 mM potassium phosphate buffer (pH 7.8). Homogenates were then centrifuged at 1000 g at 4° C. for 10 min (lung) or 25,000 g for 30 min (umbilical cord); the supernatants were kept frozen until ready to use. Lung or umbilical cord homogenate was preincubated with clorgyline and pargyline at 1 μM to inhibit MAO-A and -B activity, respectively, and SSAO inhibitors were generally present at 1 nM-10 μM. The reaction was initiated by addition of 20 μM ^14C— benzylamine as substrate. The reaction was carried out at 37° C. in a final volume of 400 μL of 100 mM potassium phosphate buffer (pH 7.2) and stopped with 100 μl of 2M citric acid. Radioactively labeled products were extracted into toluene/ethyl acetate (1:1, v/v) containing 0.6% (w/v) 2,5-diphenyloxazole (PPO) before liquid scintillation counting.

Data set [1] has as its system carrageenan-induced paw edema. In words: Carrageenan-induced rat paw edema. The conditions noted are these: therapeutic dosing: 3 mg/kg orally one hour after 0.375% carrageenan; FIG. 8. The data set is classed as in vivo, Sprague Dawley rats. The text has this:
Carrageenan-induced paw edema has been extensively used in the evaluation of anti-inflammatory effects of various therapeutic agents and is a useful experimental system for assessing the efficacy of compounds to alleviate acute inflammation (Whiteley P E and Dalrymple S A, 1998. Models of inflammation: carrageenan-induced paw edema in the rat, in Current Protocols in Pharmacology. Enna S J, Williams M, Ferkany J W, Kenaki T, Porsolt R E and Sullivan J P, eds., pp 5.4.1-5.4.3, John Wiley & Sons, New York). The full development of the edema is neutrophil-dependent (Salvemini D. et al. (1996) Br. J. Pharmacol. 118: 829).
Female Sprague Dawley rats were used in groups of 8-12 and compounds of the invention were administered orally at up to 50 mg/kg 60 min prior to carrageenan exposure. The control group was administered orally an equal volume of vehicle (PBS). Edema in the paws was induced as previously described by injecting 50 μL of a 0.5% solution of carrageenan (Type IV Lambda, Sigma) in saline with a 27-G needle s.c. in the right foot pad. (See Whiteley P. E. and Dalrymple S. A. (1998), Models of inflammation: carrageenan-induced paw edema in the rat, in Current Protocols in Pharmacology, Enna S J, Williams M, Ferkany J W, Kenaki T, Porsolt R E and Sullivan J P, eds., pp 5.4.1-5.4.3, John Wiley & Sons, New York) The size of the tested foot of each animal was measured volumetrically with a plethysmometer immediately after injection of carrageenan solution and at various times up to 360 min after carrageenan induction.
Results of experiments with the compounds II-1-E, I-1-Z, and I-2-Z are shown in FIG. 1, FIG. 5, and FIG. 6, respectively.
Using the same procedure discussed above, the size of the foot of each animal was measured volumetrically before induction of edema, and at 1.5, 3, 4.5 and 6 h after the carrageenan injection. The absolute decreases in paw swelling at 6 h with 1, 10 and 50 mg/kg were 5±11%, 20±9% and 32±6% respectively. Statistical analyses were performed with repeated measures ANOVA followed by Dunnett's test for multiple comparisons.
Paw edema was induced in groups of eight Sprague Dawley rats by injecting 50 μL of a 0.375% solution of carrageenan X in saline, subcutaneously in the foot. After one hour animals were orally dosed once with PBS, compound I-1-Z at 50 mg/kg or with indomethacin at 3 mg/kg. The size of the paws were measured before induction of edema (baseline), and at 1.5, 3, 4.5 and 6 h after carrageenan injection. […] Statistical analyses were performed with repeated measures ANOVA followed by Dunnett's test for multiple comparisons.
Groups of eight Sprague Dawley rats were orally administered PBS, or 0.01, 0.1 or 1 mg/kg of compound I-1-Z. One hour later paw edema was induced in all animals by injecting 50 μL of a 0.5% solution of carrageenan X in saline, subcutaneously into the footpad. The size of the foot of each animal was measured volumetrically before induction of edema, and at 1.5, 3, 4.5 and 6 h after the carrageenan injection. The absolute decreases in paw swelling at 6 h with 0.1 and 1 mg/kg were 34±8 and 29±8% respectively. Statistical analyses were performed with repeated measures ANOVA followed by Dunnett's test for multiple comparisons.

This note sets out measurements from patent US20110269811A1, “INHIBITORS OF SEMICARBAZIDE-SENSITIVE AMINE OXIDASE (SSAO) AND VAP-1 MEDIATED ADHESION USEFUL FOR TREATMENT AND PREVENTION OF DISEASES” (priority 2006, published 2011).

Structures are written as SMILES.

By melting point is commonly meant the temperature of the solid-liquid transition. In turn, `Cl.NC/C(=C/Cl)CCc1cc(F)cc(C(F)(F)F)c1` [Compound I-51-E, (E)-3-Chloro-2-(3-fluoro-5-trifluoromethylphenylethyl)allylamine hydrochloride] gave a melting point of 96 to 97 °C. On Human SSAO (@40 (unit uncertain)), the “Human SSAO, percent at given concentration” value is given as 33%@40 mM.

Turning to `Cl.NC/C(F)=C\Cc1cc(C(F)(F)F)cc(C(F)(F)F)c1` [II-12-E, (E)-2-Fluoro-4-(3,5-ditrifluoromethylphenyl)-2-butenylamine hydrochloride], the melting point was in the range of 197 to 198 °C. For the same compound, the “Human SSAO, percent at given concentration” value at Human SSAO (@7 (unit uncertain)) is given as 55%@7 mM. In general, IC50 refers to the midpoint of a concentration-inhibition curve. The compound `COc1ccccc1C/C=C(/F)CN.Cl` [II-17-E, (E)-2-Fluoro-4-(2-methoxyphenyl)-2-butenylamine hydrochloride] had a melting point of 133 to 134 °C. Also, the IC50 at Human SSAO (human umbilical cord homogenate, read-out: Human SSAO IC50) came out at 4.5 µM. As to `COc1ccc2c(c1)c(CC(=O)O)c(C)n2C(=O)c1ccc(Cl)cc1` [indomethacin, reference compound], the “inhibition of paw edema at 6 h” value in data set [1] came out at 67±8%.
